Nine compounds from patent US8013187B2, “2-cyclopenten-1-one oxime derivatives inhibiting production of TNF-α” (Amorepacific Corporation, priority 2004, dated 2011) can be followed below.

For one series, the target named is T1, PDE4D (Homo sapiens, UniProt Q08499).
T1 construct: purchased Fab Gennix International Inc. (Frisco, Tex./USA)
The series can be described thus: Inhibition of PDE4 isozymes ([3H]cAMP SPA): PDE4D. The series is classed as biochemical. To be noted: @ 0.1 μg/ml, pH 7.4 Tris buffer. Here is the method:
(§1) Inhibition of PDE4 Isozymes: Compounds of the instant invention were evaluated for their ability to inhibit isozymes of phosphodiesterase 4 (PDE4) obtained from Fab Gennix International Inc. (Frisco, Tex./USA) according to a literature method. […] In brief, a compound at a designated dose was assayed for their ability to inhibit the hydrolysis of cAMP by a PDE4 isozyme in pH 7.4 Tris buffer. The resulting level of cAMP was determined by the scintillation proximity assay (SPA) using a SPA kit from Amersham Biosciences according to the supplier's instruction manual (TRKQ7090 Phosphodiesterase [^3H]cAMP SPA enzyme assay).

The subject of series [1] is production of TNF-α in rat PBMCs. Put plainly: Inhibition of TNF-α production in rat PBMCs (LPS/IFN-γ stimulated, ELISA). The note with it: PBMC; rat PBMCs, LPS + IFN-γ, 18 hours. The series is classed as cell-based. Here is the method:
(§2) Compounds of this invention were evaluated for their ability to inhibit the production of TNF-α in stimulated immune cells. […] Compounds of the present invention were evaluated for their therapeutic activity in animal models for inflammatory or immunological disorders. Also compounds of this invention were assayed for their ability to inhibit PDE4 isozymes.
Inhibition of TNF-α Production in Rat PBMCs: Compounds of the present invention were evaluated for their ability to inhibit the production of TNF-α in rat peripheral blood mononuclear cells (PBMCs) as described in the literature. [Exp. Geront. vol 37, 235-247 (2002)] In brief, 6 ml rat blood drawn from the abdominal vein as treated with ACD (acid/citrate/dextrose) was carefully added in a tube containing 6 ml Ficoll 1077, and the tube was centrifuged for 30 min at 1500 rpm (415 G) at room temperature. The cell fraction (middle fraction) was suspended in a 50 ml tube containing phosphate buffered saline (PBS). The tube was centrifuged for 5 min at 2000 rpm (737 G). The resulting pellet was suspended in 6 ml PBS and 6 ml Ficoll 1077, and centrifuged for 30 min at 1500 rpm (415 G) at room temperature to remove remaining plasma. The cell fraction was suspended in PBS and centrifuged for 5 min at 2000 rpm. Such a washing was repeated twice. Then the collected cells were suspended in 10 ml RPMI-1640 containing 10% FBS and further diluted to contain 4×10^6 cells per ml. The cell suspension was dispensed into a 96-well plate at 100 μl per well, which was pre-supplemented with 1 μl of either DMSO (placebo) or a DMSO stock solution containing a designated concentration of a compound of this invention. The plate was cultured for an hour at 37° C. under 5% CO2 and 95% O2. To each well, was added 100 μl RPMI-1640 containing 0.1 μg/ml LPS, 5 U/ml IFN-γ, and 10% FBS. Then the plate was subjected to a culture for 18 hours at 37° C. under 5% CO2 and 95% O2. An aliquot of the supernatant from each well was subjected to an ELISA assay to determine the TNF-α level in the well.

For series [2], the system named is production of TNF-α in mice stimulated with LPS. The series can be described thus: In vivo inhibition of TNF-α production in mice stimulated with LPS. To be noted: Mus musculus, 2 h, LPS i.p., plasma at hour 2, read-out: % Inhibition of in vivo TNF-α production @ dose; for inhibition in vivo at 3 mg/kg: 3 mg/kg oral gavage. As to the method: [J. Pharmacol. Exp. Therapeut. vol 279, 1453-1461 (1996)] In brief, either a compound of the instant invention with vehicle or vehicle only (5% Tween 80) was administered by oral gavage (10 ml/kg body weight) at hour 0 to mice (Balb/C or ICR, 25˜30 g) fasted overnight. The mice were subjected to a peritoneal injection with […] LPS per mouse at hour 0.5, and blood was drawn from the abdominal vein at hour 2 following euthanasia with CO2. Then plasma separated from the drawn blood by centrifugation was subjected to an ELISA assay to measure the level of TNF-α.

Another series deals with T2, PDE4A (Homo sapiens, UniProt P27815).
T2 construct: purchased Fab Gennix International Inc. (Frisco, Tex./USA)
The series can be described thus: Inhibition of PDE4 isozymes ([3H]cAMP SPA): PDE4A. Type of series: biochemical. The note with it: @ 0.5 μg/ml, pH 7.4 Tris buffer. As to the method:
as §1

The subject of series [3] is cAMP degradation in U937 cells. Put plainly: In vitro inhibition of cAMP degradation in U937 cells (forskolin, cAMP EIA). Type of series: cell-based. The note with it: Homo sapiens, U-937, 10 μM forskolin. As to the method:
In vitro Inhibition of cAMP Degradation in U937 Cells: Compounds of this invention were evaluated for their ability to inhibit in cells the hydrolysis of cAMP induced by forskolin, an adenylate cyclase stimulator. In brief, 3×10^5 U937 cells per well on a 96-well plate were incubated for 10 min at 37° C. in 200 μl RPMI-1640 containing 10% FBS, which was followed by treatment of either DMSO or a DMSO stock solution of a compound of the present invention at a designated dose. Then the cells were stimulated with 10 μM forskolin for 10 min at 37° C. The plate was centrifuged for 5 min at 1500 rpm. 120 μl of the supernatant was carefully removed from each well and 200 μl of lysis agent 1B was added to the well. Then the cell lysate was assayed to determine the level of cAMP by enzyme immunoassay (EIA) using a cAMP EIA kit from Amersham Pharmacia Biotech (Kit #RPN225). IC50's were determined for compounds of this invention from dose response curves for cAMP levels.

The test system of series [4] is production of TNF-α in human PBMCs. The series can be described thus: Inhibition of TNF-α production in human PBMCs (ELISA). The series is classed as cell-based. To be noted: PBMC. Here is the method: as §2
Inhibition of TNF-α Production in Human PBMCs: Compounds of the present invention were evaluated for their ability to inhibit the production of TNF-α in human PBMCs as described in the literature. [J. Med. Chem. vol 39, 3238-3240 (1996)] Blood was freshly drawn from healthy human subjects as treated with ACD to isolate human PBMCs according to the procedure employed for rat PBMCs. The employed assay method for the ELISA against human TNF-α was essentially identical to that for the rat TNF-α ELISA assay.
(In general: In an ELISA, binding on a coated surface is turned into a signal by an enzyme label.)

For series [5], the system named is colitis induced by dextran sulfate sodium (DSS) in Balb/c mice. The series can be described thus: DSS-induced colitis in mice. The series is classed as in vivo. To be noted: 50 mg/kg BID oral, day 11, p>0.05.
Experimental: Therapeutic Effect in DSS-induced Colitis: Compounds of the present invention were evaluated for their ability to treat colitis induced by dextran sulfate sodium (DSS) in mice according to the literature. […] In brief, female Balb/c mice weighing 16-20 g were randomized into groups (5˜6 per group) and were allowed from day 1 free access to water containing 5% DSS. A compound of this invention or sulfasalazine in 5% Tween 80 at 10 ml/kg was orally administered twice a day. Clinical activity score of each animal was measured on a daily basis by evaluating the stool consistency, body weight and rectal bleeding.

One may read the inhibition as the change of the read-out against control, counted positive when it falls. By IC50 is commonly meant the concentration at which inhibition is half-maximal. By melting point is commonly meant the temperature of the solid-liquid transition. The term inhibition in vivo denotes the change of the read-out against control, counted positive when it falls.

Values after ≈ are worked out from the molar mass of the structure shown.

T1 sequence (Q08499 whole entry): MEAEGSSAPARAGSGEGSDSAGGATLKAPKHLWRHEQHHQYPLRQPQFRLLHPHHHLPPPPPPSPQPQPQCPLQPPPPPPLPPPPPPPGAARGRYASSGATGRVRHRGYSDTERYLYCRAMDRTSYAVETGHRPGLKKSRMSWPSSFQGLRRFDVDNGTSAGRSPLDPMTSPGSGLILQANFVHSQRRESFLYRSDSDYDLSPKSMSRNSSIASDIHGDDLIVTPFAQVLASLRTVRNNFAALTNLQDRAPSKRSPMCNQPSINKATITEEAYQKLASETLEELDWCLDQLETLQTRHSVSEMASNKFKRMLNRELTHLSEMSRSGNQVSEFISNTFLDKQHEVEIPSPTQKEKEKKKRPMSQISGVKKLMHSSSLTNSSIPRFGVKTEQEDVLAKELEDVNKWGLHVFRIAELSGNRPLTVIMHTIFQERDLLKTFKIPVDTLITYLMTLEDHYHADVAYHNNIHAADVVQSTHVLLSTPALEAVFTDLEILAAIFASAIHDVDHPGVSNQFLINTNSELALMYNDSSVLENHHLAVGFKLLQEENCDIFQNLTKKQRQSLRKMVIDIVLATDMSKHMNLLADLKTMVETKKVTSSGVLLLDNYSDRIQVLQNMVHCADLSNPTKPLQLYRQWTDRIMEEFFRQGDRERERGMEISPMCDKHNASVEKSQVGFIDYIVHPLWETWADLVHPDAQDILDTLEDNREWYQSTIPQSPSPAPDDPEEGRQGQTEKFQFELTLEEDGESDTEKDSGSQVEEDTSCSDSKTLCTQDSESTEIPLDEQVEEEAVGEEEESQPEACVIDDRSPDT
T2 sequence (P27815 whole entry): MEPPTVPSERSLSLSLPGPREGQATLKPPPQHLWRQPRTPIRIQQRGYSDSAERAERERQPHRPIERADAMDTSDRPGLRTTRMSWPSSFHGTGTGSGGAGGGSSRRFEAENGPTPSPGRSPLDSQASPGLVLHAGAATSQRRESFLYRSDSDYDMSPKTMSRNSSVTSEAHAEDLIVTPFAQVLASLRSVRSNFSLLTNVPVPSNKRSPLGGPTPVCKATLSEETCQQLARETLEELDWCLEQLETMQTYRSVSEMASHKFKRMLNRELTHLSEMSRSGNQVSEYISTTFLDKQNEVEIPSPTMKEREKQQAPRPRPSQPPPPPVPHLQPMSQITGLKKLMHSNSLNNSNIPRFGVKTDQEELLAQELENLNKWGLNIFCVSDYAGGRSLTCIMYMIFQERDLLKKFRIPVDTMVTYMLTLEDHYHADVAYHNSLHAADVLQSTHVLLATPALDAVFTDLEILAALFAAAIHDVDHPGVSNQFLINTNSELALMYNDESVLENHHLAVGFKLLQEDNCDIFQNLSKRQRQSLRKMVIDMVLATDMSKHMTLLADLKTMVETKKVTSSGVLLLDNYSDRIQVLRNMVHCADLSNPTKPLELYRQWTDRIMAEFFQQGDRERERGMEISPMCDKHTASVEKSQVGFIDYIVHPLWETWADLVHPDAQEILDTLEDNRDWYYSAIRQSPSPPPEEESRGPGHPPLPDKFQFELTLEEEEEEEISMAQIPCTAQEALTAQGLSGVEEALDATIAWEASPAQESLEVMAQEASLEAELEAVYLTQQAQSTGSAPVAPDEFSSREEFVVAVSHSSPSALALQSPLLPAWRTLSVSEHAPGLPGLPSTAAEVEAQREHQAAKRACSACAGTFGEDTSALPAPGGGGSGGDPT

In turn, `ON=C1CCC(C2CCCC2)=C1c1ccc(F)cc1` [Example 1, 3-cyclopentyl-2-(4-fluorophenyl)-2-cyclopenten-1-one oxime] returned a melting point of 204 to 205 °C. For the same compound, at PDE4D, the inhibition at 0.1 µg/mL amounted to 79%. Also, the IC50 in series [1] was found to be 0.12 µg/mL. The inhibition in vivo at 3 mg/kg in series [2] came out at 72%. The compound further returned an inhibition at 0.5 µg/mL on PDE4A of 72%.

Compound `ON=C1CCC(C2CCCC2)=C1c1ccc(F)c(F)c1` [Example 2, 3-cyclopentyl-2-(3,4-difluorophenyl)-2-cyclopenten-1-one oxime] had a melting point of 173 to 174 °C. In addition, the half-maximal inhibitory concentration (IC50) in series [1] stood at 0.035 µg/mL. Moreover, the inhibition in vivo at 0.3 mg/kg in series [2] (0.3 mg/kg oral gavage) was found to be 78%. Moreover, the IC50 in series [3] came to 0.1 µg/mL (≈ 0.361 µM). The compound further gave an IC50 in series [4] of 0.072 µg/mL (≈ 0.26 µM).

For the compound `ON=C1CCC(C2CCCC2)=C1c1ccc(F)c(Cl)c1` [Example 3, 2-(3-chloro-4-fluorophenyl)-3-cyclopentyl-2-cyclopenten-1-one oxime], the melting point was in the range of 143 to 144 °C. In addition, 0.1 µg/mL produced 78% inhibition on PDE4D. For the same compound, in series [1], the IC50 worked out at 0.053 µg/mL. At PDE4A, this compound displayed an inhibition at 0.5 µg/mL of 89%.

`ON=C1CCC(C2CCCC2)=C1c1ccc2c(c1)OCO2` [Example 10, 3-cyclopentyl-2-(3,4-methylenedioxyphenyl)-2-cyclopenten-1-one oxime] registered a melting point of 186 to 188 °C. This compound also had an inhibition at 0.1 µg/mL against PDE4D of 38%. In addition, the IC50 in series [1] came to 0.097 µg/mL. The compound also returned an inhibition at 0.5 µg/mL on PDE4A of 33%.

`ON=C1CCC(C2CCCCC2)=C1c1ccc(F)c(Cl)c1` [Example 28, 2-(3-chloro-4-fluorophenyl)-3-cyclohexyl-2-cyclopenten-1-one oxime] came in with a melting point of 158 to 160 °C. The same compound gave an inhibition at 0.1 µg/mL at PDE4D of 87%. The IC50 in series [1] was found to be 0.13 µg/mL. In addition, the inhibition in vivo at 3 mg/kg in series [2] was 88%. 0.5 µg/mL produced 58% inhibition against PDE4A.

`CCCCC1=C(c2ccc3c(c2)OCO3)C(=NO)CC1` [Example 45, 3-butyl-2-(3,4-methylenedioxyphenyl)-2-cyclopenten-1-one oxime] had a melting point of 116 to 120 °C. Besides, the IC50 in series [1] stood at 0.69 µg/mL. Besides, the inhibition in vivo at 1 mg/kg in series [2] (1 mg/kg oral gavage) came out at 42%. In series [3], this compound came in with an IC50 of 0.87 µg/mL (≈ 3.18 µM). The compound further registered a 50% inhibitory concentration (IC50) in series [4] of 0.8 µg/mL (≈ 2.93 µM).

The compound `CCCC1=C(c2ccc(F)c(F)c2)C(=NO)CC1` [Example 79, 2-(3,4-difluorophenyl)-3-propyl-2-cyclopenten-1-one oxime] gave a melting point of 136 to 137 °C. The compound further registered an inhibition at 0.1 µg/mL against PDE4D of 23%. Also, in series [1], the IC50 turned out to be 0.18 µg/mL. Further, the inhibition in vivo at 3 mg/kg in series [2] stood at 85%. Also, on PDE4A, the inhibition at 0.5 µg/mL was 0%.

As for `COc1ccc(C2CNC(=O)C2)cc1OC1CCCC1` (centres unmarked) [Rolipram, rolipram, reference compound], the values for the IC50 in series [1], in series [3] and in series [4] were 0.05 to 0.1 µg/mL, 0.27 µg/mL (≈ 0.981 µM) and 0.01 to 0.1 µg/mL (≈ 0.0363 to 0.363 µM), respectively. In addition, the inhibition in vivo at 0.2 mg/kg in series [2] (0.2 mg/kg oral gavage) is around 50%.

In the case of `O=C(O)c1cc(/N=N/c2ccc(S(=O)(=O)Nc3ccccn3)cc2)ccc1O` [sulfasalazine], in series [5], the “improvement in the clinical score activity from the control group” value came to 19%.
